Activity calls are given as the source filed them. No cut-off for these calls is given here.
Columns and labels:
[1] = Hepatotoxicity in KM mouse assessed as appearance of loose cytoplasm at 1.65 mmol/Kg, IG administered via gavage by H and E staining based analysis; format: toxicity; settings: in vivo, po
Mus musculus [2] = test: Upregulation of HO-1 protein expression in liver of KM mouse at 1.65 mmol/Kg, IG administered via gavage measured after 1 month by Western blot analysis; format: functional; settings: time 1.0 months
[3] = Hepatotoxicity in KM mouse assessed as reduction in plasma ALT level at 1.65 mmol/Kg, IG administered via gavage measured for 1 month by automated biochemical analyzer; format: toxicity; settings: in vivo, po, 730 h, time 1 months
Mus musculus [4] = test: Upregulation of Nrf2 protein expression in liver of KM mouse at 1.65 mmol/Kg, IG administered via gavage measured after 1 month by Western blot analysis; format: functional; settings: time 1.0 months
[5] = Hepatotoxicity in KM mouse assessed as effect on liver weight at 1.65 mmol/Kg, IG administered via gavage measured for 1 month; format: toxicity, tissue-based; settings: in vivo, po, 730 h, time 1 months
[6] = Hepatotoxicity in KM mouse assessed as reduction in plasma ALP level at 1.65 mmol/Kg, IG administered via gavage measured for 1 month by automated biochemical analyzer; format: toxicity; settings: in vivo, po, 730 h, time 1 months
[7] = Hepatotoxicity in KM mouse assessed as reduction in plasma AST level at 1.65 mmol/Kg, IG administered via gavage measured for 1 month by automated biochemical analyzer; format: toxicity; settings: in vivo, po, 730 h, time 1 months
Mus musculus [8] = test: Antiinflammatory activity in KM mouse assessed as downregulation of TNF-alpha expression in liver tissue at 1.65 mmol/Kg, IG administered via gavage measured for 1 month by Western blot analysis; format: functional, organism-based; settings: time 1.0 months
Mus musculus [9] = test: Antioxidant activity in KM mouse assessed as increase in CAT level in plasma at 1.65 mmol/Kg, IG administered via gavage measured for 1 month; format: functional, organism-based; settings: time 1.0 months
[10] = Hepatotoxicity in KM mouse assessed as nuclear degeneration at 1.65 mmol/Kg, IG administered via gavage by H and E staining based analysis; format: toxicity; settings: in vivo, po
[11] = Hepatotoxicity in KM mouse assessed as infiltration of inflammatory cells at 1.65 mmol/Kg, IG administered via gavage by H and E staining based analysis; format: toxicity; settings: in vivo, po
Mus musculus [12] = test: Antioxidant activity in KM mouse assessed as increase in GSH level in plasma at 1.65 mmol/Kg, IG administered via gavage measured for 1 month; format: functional, organism-based; settings: time 1.0 months
Mus musculus [13] = test: Antioxidant activity in KM mouse assessed as increase in SOD level in plasma at 1.65 mmol/Kg, IG administered via gavage measured for 1 month; format: functional, organism-based; settings: time 1.0 months
Mus musculus [14] = test: Downregulation of p-NF-kappaB p65 protein expression in liver of KM mouse at 1.65 mmol/Kg, IG administered via gavage measured after 1 month by Western blot analysis; format: functional; settings: time 1.0 months
[15] = Toxicity in KM mouse assessed as reduction in body weight at 1.65 mmol/Kg, IG administered via gavage measured for 1 month; settings: in vivo, po, 730 h, time 1 months
[16] = Hepatotoxicity in KM mouse assessed as reduction in total bilirubin level in plasma at 1.65 mmol/Kg, IG administered via gavage measured for 1 month by automated biochemical analyzer; format: toxicity; settings: po, 730 h, time 1 months
Mus musculus [17] = test: Hypolipidemic activity in Triton-WR-1339 induced hyperlipidemic KM mouse model assessed as reduction in plasma TG level administered intragastrically via gavage for 7 days; format: functional, organism-based; settings: dose 0.029-0.267 mmol/Kg, route ig, time 7.0 day, DDE = dose-dependent effect
Mus musculus [18] = test: Hepatoprotective activity in KM mouse assessed as improvement in hepatocyte injury at 1.65 mmol/Kg, IG administered via gavage by H and E staining based analysis; format: functional, organism-based
Mus musculus [19] = test: Hypolipidemic activity in Triton-WR-1339 induced hyperlipidemic KM mouse model assessed as reduction in plasma TC level administered intragastrically via gavage for 7 days; format: functional, organism-based; settings: dose 0.029-0.267 mmol/Kg, route ig, time 7.0 day, DDE = dose-dependent effect
[20] = Hepatotoxicity in KM mouse assessed as reduction in liver coefficient at 1.65 mmol/Kg, IG administered via gavage measured for 1 month; format: toxicity, tissue-based; settings: in vivo, po, 730 h, time 1 months
Mus musculus [21] = test: Antioxidant activity in KM mouse assessed as reduction in MDA level in plasma at 1.65 mmol/Kg, IG administered via gavage measured for 1 month; format: functional, organism-based; settings: time 1.0 months
Mus musculus [22] = test: Antiinflammatory activity in KM mouse assessed as downregulation of IL-6 expression in liver tissue at 1.65 mmol/Kg, IG administered via gavage measured for 1 month by Western blot analysis; format: functional, organism-based; settings: time 1.0 months
Mus musculus [23] = test: Induction of inflammation in KM mouse assessed as upregulation of TNF-alpha expression in liver tissue at 1.65 mmol/Kg, IG administered via gavage measured for 1 month by Western blot analysis; format: functional; settings: time 1.0 months
Mus musculus [24] = test: Induction of inflammation in KM mouse assessed as upregulation of IL-6 expression in liver tissue at 1.65 mmol/Kg, IG administered via gavage measured for 1 month by Western blot analysis; format: functional; settings: time 1.0 months
Mus musculus [25] = test: Induction of oxidative stress in KM mouse assessed as reduction in GSH level in plasma at 1.65 mmol/Kg, IG administered via gavage measured for 1 month; format: functional, organism-based; settings: time 1.0 months
Mus musculus [26] = test: Induction of oxidative stress in KM mouse assessed as reduction in CAT level in plasma at 1.65 mmol/Kg, IG administered via gavage measured for 1 month; format: functional, organism-based; settings: time 1.0 months
Mus musculus [27] = test: Upregulation of p-NF-kappaB p65 protein expression in liver of KM mouse at 1.65 mmol/Kg, IG administered via gavage measured after 1 month by Western blot analysis; format: functional; settings: time 1.0 months
Mus musculus [28] = test: Induction of oxidative stress in KM mouse assessed as reduction in SOD level in plasma at 1.65 mmol/Kg, IG administered via gavage measured for 1 month; format: functional, organism-based; settings: time 1.0 months
[29] = Hepatotoxicity in KM mouse assessed as large areas of hepatocytes swelling at 1.65 mmol/Kg, IG administered via gavage by H and E staining based analysis; format: toxicity; settings: in vivo, po
[30] = Hepatotoxicity in KM mouse assessed as blurred edge dissolution at 1.65 mmol/Kg, IG administered via gavage by H and E staining based analysis; format: toxicity; settings: in vivo, po
Mus musculus [31] = test: Induction of oxidative stress in KM mouse assessed as increase in MDA level in plasma at 1.65 mmol/Kg, IG administered via gavage measured for 1 month; format: functional, organism-based; settings: time 1.0 months

With `CC(C)(Oc1ccc(Cl)cc1)C(=O)Oc1ccc(-c2cc(=S)ss2)cc1` the Activity [1] was “Non-Toxic”, the Activity (Mus musculus [2]) was “Active” and the Activity [3] was “Non-Toxic”. The Activity (Mus musculus [4]) was “Active”, the Activity [5] was “Non-Toxic” and the Activity [6] was “Non-Toxic”. For the same compound, the Activity [7] was “Non-Toxic”, the Activity (Mus musculus [8]) was “Active” and the Activity (Mus musculus [9]) was “Active”. For the same compound, the Activity [10] was “Non-Toxic”, the Activity [11] was “Non-Toxic” and the Activity (Mus musculus [12]) was “Active”. The Activity (Mus musculus [13]) was “Active”, the Activity (Mus musculus [14]) was “Active” and the Activity [15] was “Non-Toxic”. The Activity [16] was “Non-Toxic”, the Activity (Mus musculus [17]) was “Dde” and the Activity (Mus musculus [18]) was “Active”. The Activity (Mus musculus [19]) was “Dde”, the Activity [20] was “Non-Toxic” and the Activity (Mus musculus [21]) was “Active”. For the same compound, the Activity (Mus musculus [22]) was “Active”.

For `CCOC(=O)C(C)(C)Oc1ccc(Cl)cc1` [CLOFIBRATE], the Activity [1] was “Toxic”, the Activity [3] was “Toxic” and the Activity (Mus musculus [23]) was “Active”. For the same compound, the Activity (Mus musculus [24]) was “Active”, the Activity [5] was “Toxic” and the Activity [6] was “Toxic”. For the same compound, the Activity (Mus musculus [25]) was “Active”, the Activity [7] was “Toxic” and the Activity (Mus musculus [26]) was “Active”. The Activity [10] was “Toxic”, the Activity [11] was “Toxic” and the Activity (Mus musculus [27]) was “Active”. The Activity [15] was “Non-Toxic”, the Activity (Mus musculus [28]) was “Active” and the Activity [16] was “Toxic”. For the same compound, the Activity [29] was “Toxic”, the Activity [30] was “Toxic” and the Activity (Mus musculus [31]) was “Active”. The Activity [20] was “Toxic”.
